Measurements: patent publication US20080038251A1, “MN/CA IX and MAPK inhibition” (priority 2006, published 2008)
Entries after “also recorded” stand apart in the source; their conditions may differ.

Legend:
[1] = Phase I and II clinical trials; cited from earlier work
CA IX protein = experiment: Immunoblotting of endogenous CA IX protein expression in HeLa cells; type: cell-based, human; conditions: data not shown; for CA IX protein level / hypoxic induction of CA IX protein: Example 9, hypoxia
Experimental: HeLa cells were plated in dense (80,000 cells/cm^2) and sparse (10,000 cells/cm^2) cultures and incubated for 24 h. […] Parallel control dishes were pre-treated and maintained in normoxia for the same time period.
For the detection of CA IX, the cells were extracted with cold RIPA buffer for 15 min at 4° C. The extracts were then centrifuged (15 min at 13,000 rpm) and total protein concentrations were determined by BCA assay (Pierce, Rockford, Ill.). Samples of 30 μg total proteins were separated by the electrophoresis using 10% SDS-PAGE and blotted onto the PVDF membrane. Before immunodetection, the membrane was treated by the blocking buffer containing 5% non-fat milk in PBS with 0.2% Nonidet P-40 for 1 h and incubated for 1 h with M75 MAb diluted 1:2 in the blocking buffer. Then the membrane was washed, incubated for 1 h with the anti-mouse secondary antibody, washed again and developed with the ECL detection system. Intensity of CA IX-specific bands was analyzed by the Scion Image Beta 4.02 software (Scion Corporation, Frederick, Md.), and relative CA IX expression was expressed as percentages.

tumor xenograft models = conditions: cited from earlier work
[2] = compared with CI-1040; cited from earlier work
[3] = compared with CI-1040; cited from earlier work; remark: listed apart in the source
[4] = compared with CI-1040; cited from earlier work; remark: listed apart in the source
MEK = conditions: biochemical assays; cited from earlier work
PR1-HRE CA9 promoter [5] = experiment: PR1-HRE-luc CA9 promoter luciferase-renilla reporter assay in HEK293 cells; type: cell-based, human
Experimental: The inventors used PR1-HRE promoter region of CA9 ([…]) that contains HRE element and SP1 binding site, and assessed its transcriptional activity in luciferase-renilla reporter system. First, the PR1-HRE-luc plasmid was co-transfected together with renilla internal standard to HEK293 cells plated in high density and treated by the U0126 inhibitor of ERK (MAP kinases) for 20 h (FIG. 8). The promoter activity was analyzed in the transfected cells incubated in normoxic conditions or in the presence of DFO that can induce a chemical hypoxia. The promoter activity was determined as a ratio between the luciferase-related luminescence and renilla-related luminescence.
(§1) The PR1-HRE-luc promoter construct was generated by an insertion of a −50/+37 CA9 genomic region amplified by PCR upstream of the firefly luciferase gene in pGL3-Basic luciferase reporter vector (Promega). pRL-TK renilla vector (Promega) served for the control of the transfection efficiency.

PR1-HRE CA9 promoter [6] = experiment: PR1-HRE-luc CA9 promoter luciferase-renilla reporter assay in HeLa cells; type: cell-based, human
Source text: as §1
Therefore, the inventors have cloned a −50/+37 CA9 genomic region, containing that module in its natural context relative to the transcription start site, upstream of the reporter luciferase gene. The PR1-HRE-luc promoter construct was then co-transfected with the renilla-coding control plasmid to HeLa cells that express CA IX protein in response to hypoxia and high cell density.

PR1-HRE CA9 promoter [7] = tested on: PR1-HRE CA9 promoter
Experimental: To dissect a direct contribution of HIF-1 to transcriptional activation of CA9 promoter, the inventors performed an additional experiment using Ka1.13 cell line that is defective for HIF-1α. The Ka1.13 cells were transfected either with PR1-HRE-luc reporter plasmid+renilla standard+control pcDNA3.1 plasmid or with the PR1-HRE-luc reporter plasmid+renilla standard+HIF-1α cDNA.
Cultures were pre-incubated with the inhibitors 1 h before the induction of hypoxia or addition of DFO.
The cells were plated into 30 mm Petri dishes to reach approximately 60% monolayer density on the next day. Transfection was performed with the 2 μg of PR1-HRE-luc and 100 ng of pRL-TK plasmids DNAs using a GenePorterII reagent (Gene Therapy Systems, San Diego, Calif.) according to the manufacturer's recommendation. One day later, the transfected cells were trypsinized and plated in triplicates into 24-well plates at different densities so that the dense culture contained eight times more cells than the sparse one. The cells were allowed to attach for 20 h, then they were pre-treated with inhibitors for 1 h and transferred to hypoxia (or treated with DFO) for additional 24 h. Reporter gene expression was assessed 48 h after the transfection using the Dual-Luciferase Reporter Assay System (Promega) and the luciferase activity was normalized against the renilla expression.
Therefore, the Ka13 cells were plated at intermediate density, transfected with the PR1-HRE-luc promoter construct together with the renilla control plasmid and pcDNA3.1 plasmid, pre-treated with the U0126 MAPK pathway inhibitor and exposed to a DFO-induced hypoxia. Parallel dishes were maintained in absence of DFO.

For “Rencarex: an MN-specific drug tested in Phase I and II clinical trials”, the “tolerability / drug-related side effects” value [1] is given as “well-tolerated, with no serious drug-related side effects”.
In the case of mithramycin A [MMA], the “CA IX protein level / hypoxic induction of CA IX protein” value (CA IX protein; HeLa) is reported as “reduced the CA IX protein level”.
In the case of `O=C(NOC[C@H](O)CO)c1ccc(F)c(F)c1Nc1ccc(I)cc1F` [PD-0325901], the anti-tumor activity (tumor xenograft models) is given as “potent anti-tumor activity”, the solubility [2] is given as “more soluble” and the metabolic stability [3] is given as “improved metabolic stability”. The bioavailability [4] was “improved”.
In the case of `Cn1cnc2c(F)c(Nc3ccc(Br)cc3Cl)c(C(=O)NOCCO)cc21` [ARRY-142886], the “selectivity for MEK” value (MEK) is listed as “high selectivity for MEK” and the anti-tumor activity (tumor xenograft models) is listed as “potent anti-tumor activity”.
For `N#CC(=C(/N)Sc1ccccc1N)/C(C#N)=C(\N)Sc1ccccc1N` [U0126], the “PR1-HRE CA9 promoter transcriptional activity (luciferase/renilla ratio)” value (PR1-HRE CA9 promoter [5]; Example 1, HEK293 plated in high density, inhibitor 20 h, normoxia or DFO-induced hypoxia) was “down-regulation of the PR1-HRE CA9 promoter activity; also recorded: diminished PR1-HRE transcriptional activity both in normoxia and in hypoxia”, the CA9 promoter activity (PR1-HRE CA9 promoter [5]; Example 5, HEK293 dense culture exposed to hypoxia, data not shown) was “considerably inhibited; also recorded: remarkable reduction” and the CA9 promoter activity (PR1-HRE CA9 promoter [6]; Example 5, HeLa sparse and dense, normoxia or DFO hypoxia, 20 μM inhibitor) was “about fourfold decrease; also recorded: remarkable reduction”. For the same compound, the “CA9 promoter activity, fraction of control value” (PR1-HRE CA9 promoter [6]; Example 8, dense hypoxic (1% O2) HeLa, 20 μM U0126, 10 μM LY294002) was “about one third”, the “effect on CA9 promoter activity” value (PR1-HRE CA9 promoter [6]; Example 8, normoxic and sparse HeLa cells, compared with dense hypoxic cells) was “less pronounced” and the “CA IX protein expression (Western blotting)” value (CA IX protein; Example 2, sparse and dense HeLa, normoxia (21% O2) and hypoxia (2% O2)) was “evident also at the level of CA IX protein”. The “endogenous CA IX protein levels” value (CA IX protein; Example 5, HeLa, hypoxia and/or high density) was “corresponded with the promoter activities”, the “CA IX protein level / hypoxic induction of CA IX protein” value (CA IX protein; HeLa) was “reduced the CA IX protein level” and the “PR1-HRE CA9 promoter transcriptional activity” value (PR1-HRE CA9 promoter [7]; Example 3, Ka1.13 cells with control pcDNA3.1 or HIF-1α cDNA) was “reduced the CA9 promoter activity in both the presence and absence of HIF-1α; also recorded: diminished transcription from PR1-HRE promoter both in the presence and in the absence of HIF-1α”. The “CA9 promoter activity, fraction of HIF-1α induced value” (PR1-HRE CA9 promoter [7]; Example 6, Ka13 co-transfected with wild-type HIF-1α cDNA) was “approximately one third” and the “CA9 promoter activity, remaining fraction” value (PR1-HRE CA9 promoter [7]; Example 6, Ka13 with empty pcDNA3.1 (no HIF-1α), with and without DFO) was “less than a half”.
